In PubChem BioAssay (NCI):
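Exposure lasted 48 hours, with cells grown in 96-well plates and compounds tested at five concentrations. Abbreviation: GI50, concentration required for 50% inhibition of growth. TGI marks complete inhibition of growth.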

Experiments:
Experiment in all cases: NCI anticancer screen, dose series, 48 h
COLO 205 colon = system: COLO 205 colon
LOX IMVI melanoma = system: LOX IMVI melanoma
MALME-3M melanoma = system: MALME-3M melanoma
NCI-H23 lung = system: NCI-H23 lung
PC-3 prostate = system: PC-3 prostate
UO-31 renal = system: UO-31 renal
KM12 colon = system: KM12 colon
SF-539 CNS = system: SF-539 CNS
SW-620 colon = system: SW-620 colon
UACC-62 melanoma = system: UACC-62 melanoma
MDA-MB-231 breast = system: MDA-MB-231 breast
K-562 leukemia = system: K-562 leukemia
OVCAR-3 ovarian = system: OVCAR-3 ovarian
M14 melanoma = system: M14 melanoma
HCT-15 colon = system: HCT-15 colon
HL-60(TB) leukemia = system: HL-60(TB) leukemia
ACHN renal = system: ACHN renal
MDA-MB-435 = system: MDA-MB-435
U251 CNS = system: U251 CNS
SR leukemia = system: SR leukemia
NCI-H522 lung = system: NCI-H522 lung
HCT-116 colon = system: HCT-116 colon
MCF7 breast = system: MCF7 breast
HOP-62 NSCLC = system: HOP-62 NSCLC
OVCAR-4 ovarian = system: OVCAR-4 ovarian
HS 578T breast = system: HS 578T breast
TK-10 renal = system: TK-10 renal
HT29 colon = system: HT29 colon
RXF 393 renal = system: RXF 393 renal
IGROV1 ovarian = system: IGROV1 ovarian
SK-MEL-2 melanoma = system: SK-MEL-2 melanoma
T-47D breast = system: T-47D breast
SK-MEL-5 melanoma = system: SK-MEL-5 melanoma
SK-OV-3 ovarian = system: SK-OV-3 ovarian
RPMI-8226 leukemia = system: RPMI-8226 leukemia
SK-MEL-28 melanoma = system: SK-MEL-28 melanoma
OVCAR-8 ovarian = system: OVCAR-8 ovarian
SNB-75 CNS = system: SNB-75 CNS
BT-549 breast = system: BT-549 breast
CAKI-1 renal = system: CAKI-1 renal
NCI-H226 lung = system: NCI-H226 lung
MOLT-4 leukemia = system: MOLT-4 leukemia
786-0 renal = system: 786-0 renal
SN12C renal = system: SN12C renal
SF-295 CNS = system: SF-295 CNS
CCRF-CEM leukemia = system: CCRF-CEM leukemia
SF-268 CNS = system: SF-268 CNS
NCI/ADR-RES ovarian = system: NCI/ADR-RES ovarian
OVCAR-5 ovarian = system: OVCAR-5 ovarian
SNB-19 CNS = system: SNB-19 CNS
NCI-H460 lung = system: NCI-H460 lung
UACC-257 melanoma = system: UACC-257 melanoma
A549 NSCLC = system: A549 NSCLC
DU-145 prostate = system: DU-145 prostate
A498 renal = system: A498 renal
HCC-2998 colon = system: HCC-2998 colon

## CCC(C)n1cc(C)c2c(C(=O)NCc3c(C)cc(C)[nH]c3=O)cc(Br)cc21 (configuration not stated)
COLO 205 colon
  GI50: 42.1 µM
  TGI: > 100 µM
LOX IMVI melanoma
  GI50: 32.8 µM
  TGI: > 100 µM
MALME-3M melanoma
  GI50: 36.2 µM
  TGI: 99.7 µM
NCI-H23 lung
  GI50: 76.3 µM
  TGI: > 100 µM
PC-3 prostate
  GI50: 19.1 µM
  TGI: 66.9 µM
UO-31 renal
  GI50: 70.5 µM
  TGI: > 100 µM
KM12 colon
  GI50: 38.1 µM
  TGI: > 100 µM
SF-539 CNS
  GI50: > 100 µM
  TGI: > 100 µM
SW-620 colon
  GI50: 36.4 µM
  TGI: > 100 µM
UACC-62 melanoma
  GI50: 29.4 µM
  TGI: > 100 µM
MDA-MB-231 breast
  GI50: 45 µM
  TGI: > 100 µM
K-562 leukemia
  GI50: 34.6 µM
  TGI: > 100 µM
OVCAR-3 ovarian
  GI50: 44.5 µM
  TGI: > 100 µM
M14 melanoma
  GI50: 35.2 µM
  TGI: > 100 µM
HCT-15 colon
  GI50: 29 µM
  TGI: > 100 µM
HL-60(TB) leukemia
  GI50: 24.3 µM
  TGI: 58.4 µM
ACHN renal
  GI50: 46.1 µM
  TGI: > 100 µM
MDA-MB-435
  GI50: 27.1 µM
  TGI: > 100 µM
U251 CNS
  GI50: 62.8 µM
  TGI: > 100 µM
SR leukemia
  GI50: 32.9 µM
  TGI: > 100 µM
NCI-H522 lung
  GI50: 38 µM
  TGI: > 100 µM
HCT-116 colon
  GI50: 48 µM
  TGI: > 100 µM
MCF7 breast
  GI50: 29.4 µM
  TGI: > 100 µM
HOP-62 NSCLC
  GI50: 65.2 µM
  TGI: > 100 µM
OVCAR-4 ovarian
  GI50: 37.2 µM
  TGI: > 100 µM
HS 578T breast
  GI50: 35 µM
  TGI: > 100 µM
TK-10 renal
  GI50: > 100 µM
  TGI: > 100 µM
HT29 colon
  GI50: 41.5 µM
  TGI: > 100 µM
RXF 393 renal
  GI50: 27.6 µM
  TGI: > 100 µM
IGROV1 ovarian
  GI50: > 100 µM
  TGI: > 100 µM
SK-MEL-2 melanoma
  GI50: 35.9 µM
  TGI: > 100 µM
T-47D breast
  GI50: 20 µM
  TGI: 73.3 µM
SK-MEL-5 melanoma
  GI50: 13.2 µM
  TGI: 29.1 µM
SK-OV-3 ovarian
  GI50: > 100 µM
  TGI: > 100 µM
RPMI-8226 leukemia
  GI50: 24.8 µM
  TGI: 68 µM
SK-MEL-28 melanoma
  GI50: 72.5 µM
  TGI: > 100 µM
OVCAR-8 ovarian
  GI50: 63.7 µM
  TGI: > 100 µM
SNB-75 CNS
  GI50: 43.5 µM
  TGI: > 100 µM
BT-549 breast
  GI50: 41.8 µM
  TGI: > 100 µM
CAKI-1 renal
  GI50: 94.1 µM
  TGI: > 100 µM
NCI-H226 lung
  GI50: 57.5 µM
  TGI: > 100 µM
MOLT-4 leukemia
  GI50: 26.2 µM
  TGI: 71.6 µM
786-0 renal
  GI50: > 100 µM
  TGI: > 100 µM
SN12C renal
  GI50: 55.6 µM
  TGI: > 100 µM
SF-295 CNS
  GI50: 29.9 µM
  TGI: > 100 µM
CCRF-CEM leukemia
  GI50: 30.8 µM
  TGI: > 100 µM
SF-268 CNS
  GI50: 72.3 µM
  TGI: > 100 µM
NCI/ADR-RES ovarian
  GI50: 33.8 µM
  TGI: > 100 µM
OVCAR-5 ovarian
  GI50: > 100 µM
  TGI: > 100 µM
SNB-19 CNS
  GI50: > 100 µM
  TGI: > 100 µM
NCI-H460 lung
  GI50: 40.3 µM
  TGI: > 100 µM
UACC-257 melanoma
  GI50: 32.8 µM
  TGI: > 100 µM
A549 NSCLC
  GI50: 39.7 µM
  TGI: > 100 µM
DU-145 prostate
  GI50: 76.8 µM
  TGI: > 100 µM
A498 renal
  GI50: 38.4 µM
  TGI: > 100 µM
HCC-2998 colon
  GI50: 52.4 µM
  TGI: > 100 µM
